Patent US20150289512A1, “METHOD FOR PROMOTING PLANT GROWTH” (SUMITOMO CHEMICAL COMPANY, LIMITED, priority 2012, published 2015)

How the values were obtained:
Format in all cases: in vivo
[1] = test system: Rice (variety: Nipponbare); assay: Test Example 1: promotion of root growth by hydroponics of rice, 10 ppm; settings: hydroponic solution containing the test compound at 10 ppm, average of 4 or 5 individuals
Method in brief: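 Surface-sterilised seeds germinated 3 days in the dark at 28° C in hydroponic solution with compound at 10 ppm, then grown 3 days hydroponically with compound at 10 ppm (26° C, 4,000 lux, 16 h day, 50% humidity). Seminal root length measured by image analysis, averaged over 4 or 5 plants per plot.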

[2] = test system: Corn seeds (variety: Pioneer 120 31P41); assay: Test Example 14: growth promotion under low-temperature stress by soil drench treatment of corn; settings: soil drench 20 ml, low-temperature stress 5 days at 2.5° C., health score 0-5, average of 4 individuals
Protocol: Test for Evaluating Growth Promotion Under Low-Temperature Stress by Soil Drench Treatment of Corn
Corn seeds (variety: Pioneer 120 31P41) were seeded in a culture soil (Aisai) in a plastic pot (φ55 mm×height of 58 mm), and cultivated for 7 days at 20-25° C., an illuminance of about 5,000 lux, and a day length of 16 hours.
A DMSO solution, which contained one of the compounds 1 to 9, 16, 17, 20, 23, 24, 28 to 32, 34, 45, 48, 50, 82 and 85 of the present invention at a concentration of 1,000-fold concentration of each test concentration, was prepared, and then diluted with distilled water to obtain each test solution. After that, 20 ml of the obtained test solution was used to perform soil drench treatment on the foot of the test plants. The test plants were cultivated for 2 days under the conditions of a temperature of 27° C., a humidity of 40-80%, an illuminance of about 5,000 lux, and a day length of 16 hours. This was used as a test plot treated with the compound. A plot having undergone the soil drench treatment with 20 ml of a 0.1% DMSO aqueous solution instead of the above DMSO solution containing the compound was used as an untreated control plot.
The plants having undergone the soil drench treatment were cultivated for 5 days under the conditions of a temperature of 2.5° C., a humidity of 40-80%, an illuminance of about 5,000 lux, and a day length of 16 hours, thereby exposing to low-temperature stress. After the exposure to the low-temperature stress, the plants were cultivated for 4 days under the conditions of a temperature of 27° C., a humidity of 40-80%, an illuminance of about 5,000 lux, and a day length of 16 hours.
After the cultivation, the health of each plant was scored according to the following evaluation index.
5: 4 or more leaves in which ⅔ or more of the area was healthy
4: 3 leaves in which ⅔ or more of the area was healthy
3: 2 leaves in which ⅔ or more of the area was healthy
2: 1 leaf in which ⅔ or more of the area was healthy
1: No leaf in which ⅔ or more of the area was healthy
An average of the scores of the health of 4 individuals was determined.

Nicotiana benthamiana [3] = assay: Test Example 5: growth promotion under low-temperature stress by hydroponics of Nicotiana benthamiana, 1 ppm; settings: 1 ppm in medium, low-temperature stress 7 days at 1.5±1.0° C., green leaf area 3 days later, equation (1)
Protocol: (§1) Test for Evaluating Growth Promotion Under Low-Temperature Stress by Hydroponics of Nicotiana benthamiana
A DMSO solution, which contained one of the compounds 2, 4, 5, 6, 11, 12, 17, 20, 21, 28, 30, 34, 36, 37, 51, 52, 53, 55, 56, 58, 59, 60, 64, 65, 66, 68, 69, 70, 74, 77, 82, 83, 84, 86 and 87 of the present invention at a concentration of 1,000 ppm, was prepared. The DMSO solution of the compound of the present invention was added at a volume ratio of 1/1,000 to the Murashige•Scoog medium of a ½-fold concentration (a medium containing 2.3 g of mixed salts for the Murashige•Scoog medium (manufactured by Wako Pure Chemical Industries, Ltd.), 200 mg of Myo-inositol (manufactured by Sigma-Aldrich Co. LLC.), 2 mg of nicotinic acid (manufactured by Wako Pure Chemical Industries, Ltd.), 2 mg of pyridoxine hydrochloride (manufactured by Wako Pure Chemical Industries, Ltd.), 20 mg of thiamine hydrochloride (manufactured by Wako Pure Chemical Industries, Ltd.), 20 g of sucrose (manufactured by Wako Pure Chemical Industries, Ltd.), and 1 g of MES (manufactured by DOJINDO LABORATORIES) per 1 L of water and having pH adjusted to 5.8), thereby preparing a medium containing the compound of the present invention at a concentration of 1 ppm.
(§2) Seeds of Nicotiana benthamiana were seeded in the 5 μL of the medium and cultured overnight at 22° C. Thereafter, 45 μL of the medium containing the compound of the present invention at a concentration of 1 ppm was added thereto, and the seeds are cultured for 7 days at 22° C., an illuminance of 4,000 lux, and a day length of 16 hours, and the nursery plants raised from the Nicotiana benthamiana were treated with the compound. Moreover, instead of the above medium, a test plot, which was obtained by performing the same treatment by using a medium prepared by adding DMSO to the Murashige•Scoog medium of ½-fold concentration at a volume ratio of 1/1,000, was used as a control plot not treated with the compound.
(§3) The nursery plants of the Nicotiana benthamiana treated with the compound were subjected to low-temperature treatment by being cultivated for 7 days at 1.5±1.0° C., an illuminance of 2,000 lux, and a day length of 16 hours.
The nursery plants of the Nicotiana benthamiana having undergone the low-temperature stress treatment were cultured for 3 days at 22° C., an illuminance of 4,000 lux, and a day length of 16 hours. Thereafter, the area of green leaf was quantified by Scanalyzer HTS (manufactured by LemnaTec GmbH). Moreover, the value of the control plot not treated with the compound that had not yet been subjected to the low-temperature stress treatment was measured in the same manner. A value of a relative leaf area was calculated based on the following equation (1), and if the value of a relative leaf area was 5 or greater, the compound was evaluated to have a mitigating effect. As a result of the evaluation, it was confirmed that when the plant was treated with one of the compounds 2, 4, 5, 6, 11, 12, 17, 20, 21, 28, 30, 34, 36, 37, 51, 52, 53, 55, 56, 58, 59, 60, 64, 65, 66, 68, 69, 70, 74, 77, 82, 83, 84, 86 and 87 of the present invention at 1 ppm, the value of a relative leaf area was 5 or greater, compared to the area of green leaf of the control plot not treated with compound. Accordingly, it was confirmed that the treatment using the compound of the present invention brings about a growth promotion effect.
Relative leaf area=100*(a green area of a plot treated with the compound of the present invention−a green area of a control plot not treated with the compound of the present invention)/(a green area of a control plot not treated with the compound of the present invention that has not yet been subjected to low-temperature stress treatment−a green area of a control plot not treated with the compound of the present invention) Equation (1): […]

Nicotiana benthamiana [4] = assay: Test Example 6: growth promotion under low-temperature stress by hydroponics of Nicotiana benthamiana, 0.1 ppm; settings: 0.1 ppm in medium, low-temperature stress 7 days at 1.5±1.0° C., green leaf area 3 days later, equation (1)
Protocol: as §1
A DMSO solution, which contained one of the compounds 3, 7, 14, 16, 36, 39, 43, 45, 50, 52, 53, 54, 56, 57, 62, 63, 64, 65, 68, 69, 70, 71, 73, 74, 76, 77, 79, 80, 81, 84, 85, 86 and 87 of the present invention at a concentration of 100 ppm, was prepared. The DMSO solution of the compound of the present invention was added at a volume ratio of 1/1,000 to the Murashige•Scoog medium of a ½-fold concentration for the Murashige•Scoog medium (a medium containing 2.3 g of mixed salts (manufactured by Wako Pure Chemical Industries, Ltd.), 200 mg of Myo-inositol (manufactured by Sigma-Aldrich Co. LLC.), 2 mg of nicotinic acid (manufactured by Wako Pure Chemical Industries, Ltd.), 2 mg of pyridoxine hydrochloride (manufactured by Wako Pure Chemical Industries, Ltd.), 20 mg of thiamine hydrochloride (manufactured by Wako Pure Chemical Industries, Ltd.), 20 g of sucrose (manufactured by Wako Pure Chemical Industries, Ltd.), and 1 g of MES (manufactured by DOJINDO LABORATORIES) per 1 L of water and having pH adjusted to 5.8), thereby preparing a medium containing the compound of the present invention at a concentration of 0.1 ppm.
as §2, with “concentration of 0.1 ppm was” for “concentration of 1 ppm was”, “seeds are cultivated for 7” for “seeds are cultured for 7”, “the above medium a test” for “the above medium, a test”
as §3
The nursery plants of the Nicotiana benthamiana having undergone the low-temperature stress treatment were cultivated for 3 days at 22° C., an illuminance of 4,000 lux, and a day length of 16 hours. Thereafter, the area of green leaf was quantified by Scanalyzer HTS (manufactured by LemnaTec GmbH). Moreover, the value of the control plot not treated with the compound that had not yet been subjected to the low-temperature stress treatment was measured in the same manner. A value of a relative leaf area was calculated based on the following equation (1), and if the value of a relative leaf area was 5 or greater, the compound was evaluated to have a mitigating effect. As a result of the evaluation, it was confirmed that when the plant was treated with one of the compounds 3, 7, 14, 16, 36, 39, 43, 45, 50, 52, 53, 54, 56, 57, 62, 63, 64, 65, 68, 69, 70, 71, 73, 74, 76, 77, 79, 80, 81, 84, 85, 86 and 87 of the present invention at 0.1 ppm, the value of a relative leaf area was 5 or greater, compared to the area of green leaf of the control plot not treated with compound. Accordingly, it was confirmed that the treatment using the compound of the present invention brings about a growth promotion effect.
Relative leaf area=100*(a green area of a plot treated with the compound of the present invention−a green area of a control plot not treated with the compound of the present invention)/(a green area of a control plot not treated with the compound of the present invention that has not yet been subjected to low-temperature stress treatment−green area of a control plot not treated with the compound of the present invention) Equation (1): […]

With `CCOC(=O)c1cc2cc(C(F)(F)F)ccc2[nH]1` [Compound 9] the “Relative value of length of seminal root (%-untreated control plot)” value (from here on “Relative value … (%-untreated control plot)”) [1] was greater than 5% and the “Relative value of score (%- untreated control plot)” value ([2]; concentration tested 3 ppm) was greater than 5%.
With `COC(=O)c1nc2ccccc2n1C` [Compound 23] the “Relative value … (%-untreated control plot)” value [1] was greater than 5% and the “Relative value of score (%- untreated control plot)” value ([2]; concentration tested 10 ppm) was greater than 5%.
`COC(=O)c1nc2cc(C(F)(F)F)ccc2n1C` [Compound 24, methyl 1-methyl-5-trifluoromethylbenzimidazole-2-carboxylate] showed a change in vivo at 10 ppm ([2]; Zea mays, 120 h, concentration tested 10 ppm, read-out: Relative value of score (%- untreated control plot)) greater than 5%.
For `CCOC(=O)c1nc2ccccc2s1` [Compound 31], the “Relative value of score (%- untreated control plot)” value ([2]; concentration tested 0.3 ppm) was greater than 5%.
For `O=C(O)c1nc2ccccc2s1` [Compound 32], the “Relative value … (%-untreated control plot)” value [1] was greater than 5% and the “Relative value of score (%- untreated control plot)” value ([2]; concentration tested 0.3 ppm) was greater than 5%.
`CCOC(=O)c1oc2ccccc2c1C(F)(F)F` [Compound 84] gave a change in vivo at 10 ppm ([1]; Oryza sativa, read-out: Relative value of length of seminal root (%-untreated control plot)) greater than 5%, a relative leaf area (% of untreated control) at 1 ppm (Nicotiana benthamiana [3]) of no less than 5% and a relative leaf area (% of untreated control) at 0.1 ppm (Nicotiana benthamiana [4]) of no less than 5%.
`COC(=O)c1nc2c(F)cc(F)cc2s1` [Compound 87] gave a relative leaf area (% of untreated control) at 1 ppm (Nicotiana benthamiana [3]) of no less than 5% and a relative leaf area (% of untreated control) at 0.1 ppm (Nicotiana benthamiana [4]) of no less than 5%.
